Data as given in patent US20250320206A1, “STAT6 DEGRADERS” (Gilead Sciences, Inc., priority 2024, published 2025).

What was measured:
[1] = test system: Eotaxin-3 release in human whole blood stimulated with IL-4; assay: Human Whole Blood Eotaxin-3 Assay (IL-4 stimulated eotaxin-3 release); type: cell-based; details: IL-4 stimulation, 48 h, values given for compounds with >80% Emax, geometric mean
Method in brief: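 Eotaxin-3 (CCL26) release measured by MSD kit in plasma supernatant after 48 h IL-4 stimulation ([…]) of human whole blood. Compounds added in triplicate 4-fold dilutions 2 h before stimulation; 0.5% DMSO final, 37° C, 5% CO2.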

[2] = target: T1, STAT6 (Homo sapiens, UniProt P42226); assay: Stat6 Degrader Assay (HiBiT based, HeLa LgBiT clone 4.14); type: cell-based; details: HeLa LgBiT clone 4.14 HiBiT-STAT6, 4-24 h incubation; values given for compounds with >80% Emax; geometric mean; read-out: STAT6 degradation DC50
T1 construct: These cells express endogenous STAT6; host or cells: HeLa LgBiT clone 4.14
T1 sequence (P42226 1-847): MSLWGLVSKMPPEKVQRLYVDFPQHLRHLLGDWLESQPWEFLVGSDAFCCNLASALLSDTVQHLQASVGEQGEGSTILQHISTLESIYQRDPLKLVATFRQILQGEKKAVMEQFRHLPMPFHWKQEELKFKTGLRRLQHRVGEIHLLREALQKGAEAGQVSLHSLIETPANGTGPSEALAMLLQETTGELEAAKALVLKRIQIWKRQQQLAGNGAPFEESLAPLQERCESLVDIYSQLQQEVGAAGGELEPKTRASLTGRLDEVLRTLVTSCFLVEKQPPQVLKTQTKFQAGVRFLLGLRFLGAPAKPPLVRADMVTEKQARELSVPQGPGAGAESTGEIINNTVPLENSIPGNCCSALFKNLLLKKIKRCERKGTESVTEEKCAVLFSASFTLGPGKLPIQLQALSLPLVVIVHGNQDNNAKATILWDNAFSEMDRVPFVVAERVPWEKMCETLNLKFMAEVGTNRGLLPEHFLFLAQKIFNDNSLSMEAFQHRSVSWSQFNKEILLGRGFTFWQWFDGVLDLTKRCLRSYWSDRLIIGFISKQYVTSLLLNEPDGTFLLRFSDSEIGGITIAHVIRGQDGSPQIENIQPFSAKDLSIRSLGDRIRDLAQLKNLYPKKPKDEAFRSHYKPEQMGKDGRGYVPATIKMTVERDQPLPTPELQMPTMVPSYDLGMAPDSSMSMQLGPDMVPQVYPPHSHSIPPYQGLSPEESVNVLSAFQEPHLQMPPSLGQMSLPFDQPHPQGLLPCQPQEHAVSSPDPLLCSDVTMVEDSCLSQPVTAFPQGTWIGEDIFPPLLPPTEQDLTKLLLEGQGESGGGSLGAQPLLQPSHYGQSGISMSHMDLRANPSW
Method in brief: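 Luminescence from HiBiT-STAT6 complementing stably expressed LgBiT in HeLa clone 4.14 reports remaining STAT6 protein. Cells (5000/well) exposed to compound for 4-24 h at 37° C; read 0.5 h after Nano-Glo addition. 100% degradation window set with 50 μM terfenadine; percent degradation plotted against concentration.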

SMILES	EC50 [1]	DC50 [2]
CNc1cc(=O)n(-c2ccnc3c2cc([C@H](C)N2CC=C(c4c(C)cc(C(=O)N5CCC(CN6CCN(Cc7ccc8c(c7)C(C)(C)C(=O)N8[C@@H]7CCC(=O)NC7=O)C[C@@H]6C)CC5)cc4F)CC2)n3C)cc1F (single isomer, unassigned) [Example 3u174]	11 nM	3.8 nM
CNc1ccn(-c2ccnc3c2cc(CN2CC=C(c4c(C)cc(C(=O)N5CCC(CN6CCN(Cc7ccc8c(c7)C(C)(C)C(=O)N8[C@H]7CCC(=O)NC7=O)C[C@@H]6C)CC5)cc4F)CC2)n3C)c(=O)c1 (single isomer, unassigned) [Example 3u179]	12.4 nM	6.1 nM
CNc1ccn(-c2ccnc3c2cc([C@H](C)N2CC=C(c4c(C)cc(C(=O)N5CCC(CN6CCN(Cc7cc8c(cc7F)N([C@@H]7CCC(=O)NC7=O)C(=O)C8(C)C)C[C@@H]6C)CC5)cc4F)CC2)n3C)c(=O)c1 (single isomer, unassigned) [Example 3u183]	8 nM	5.9 nM
C[C@H]1CN(Cc2ccc3c(c2)C(C)(C)C(=O)N3[C@H]2CCC(=O)NC2=O)CCN1CC1CCN(C(=O)c2ccc(C3CCN([C@@H](C)c4cc5c(-n6ccc7c(c6=O)CCN7)ccnc5n4C)CC3)cc2)CC1 (single isomer, unassigned) [Example 3u185]	2.3 nM	2.8 nM
C[C@H]1CN(Cc2ccc3c(c2)C(C)(C)C(=O)N3[C@@H]2CCC(=O)NC2=O)CCN1CC1CCN(C(=O)c2ccc(C3CCN([C@@H](C)c4cc5c(-n6ccc7c(c6=O)CCN7)ccnc5n4C)CC3)cc2)CC1 (single isomer, unassigned) [Example 3u186]	4.6 nM	3.5 nM
CNc1ccn(-c2ccnc3c2cc([C@H](C)N2CCC(c4ccc(C(=O)N5CCC(CN6CCN(Cc7ccc8c(c7)C(C)(C)C(=O)N8[C@@H]7CCC(=O)NC7=O)C[C@@H]6C)CC5)cc4)CC2)n3C)c(=O)c1 (single isomer, unassigned) [Example 3u189]	7.7 nM	4.7 nM
CNc1ccn(-c2ccnc3c2cc([C@H](C)N2CC=C(c4c(C)cc(C(=O)N5CCC(CN6CCN(Cc7ccc8c(c7)C7(CC7)C(=O)N8[C@H]7CCC(=O)NC7=O)C[C@@H]6C)CC5)cc4F)CC2)n3C)c(=O)c1 (single isomer, unassigned) [Example 3u191]	0.5 nM	0.4 nM
CNc1ccn(-c2ccnc3c2cc([C@H](C)N2CC=C(c4c(C)cc(C(=O)N5CCC(CN6CCN(Cc7cc8c(cc7F)N([C@H]7CCC(=O)NC7=O)C(=O)C87CC7)C[C@@H]6C)CC5)cc4F)CC2)n3C)c(=O)c1 (single isomer, unassigned) [Example 3u194]	0.9 nM	1.7 nM
CNc1ccn(-c2ccnc3c2cc(CN2CCC(c4c(F)cc(C(=O)N5CCC(CN6CCN(Cc7ccc8c(c7)C(C)(C)C(=O)N8[C@@H]7CCC(=O)NC7=O)C[C@@H]6C)CC5)cc4F)CC2)n3C)c(=O)c1 (single isomer, unassigned) [Example 3u206]	10.9 nM	0.4 nM
CNc1ccn(-c2ccnc3c2cc([C@H](C)N2CC=C(c4c(C)cc(C(=O)N5CCC(CN6CCN(Cc7cc8c(cc7F)n([C@@H]7CCC(=O)NC7=O)c(=O)n8C)C[C@@H]6C)CC5)cc4F)CC2)n3C)c(=O)c1 (single isomer, unassigned) [Example 3u209]	0.7 nM	7.3 nM
CNc1ccn(-c2ccnc3c2cc([C@H](C)N2CC=C(c4c(F)cc(C(=O)N5CCC(CN6CCN(Cc7ccc8c(c7)n(C7CC7)c(=O)n8[C@@H]7CCC(=O)NC7=O)C[C@@H]6C)CC5)cc4F)CC2)n3C)c(=O)c1 (single isomer, unassigned) [Example 3u212]	0.8 nM	7.5 nM

The remaining molecules from weak to strong by EC50 [1], led by results:

EC50 [1]	DC50 [2]	SMILES
17.3 nM	8.8 nM	CNc1ccn(-c2ccnc3c2cc(CN2CC=C(c4c(C)cc(C(=O)N5CCC(CN6CCN(Cc7ccc8c(c7)C(C)(C)C(=O)N8[C@@H]7CCC(=O)NC7=O)C[C@@H]6C)CC5)cc4F)CC2)n3C)c(=O)c1 (single isomer, unassigned) [Example 3u180]
15.4 nM	3.5 nM	Cc1cc(C(=O)N2CCC(CN3CCN(Cc4ccc5c(c4)C(C)(C)C(=O)N5[C@@H]4CCC(=O)NC4=O)C[C@@H]3C)CC2)cc(F)c1C1=CCN([C@@H](C)c2cc3c(-n4cc(F)c(N)cc4=O)ccnc3n2C)CC1 (single isomer, unassigned) [Example 3u171]
9.8 nM	2.3 nM	CNc1ccn(-c2ccnc3c2cc([C@H](C)N2CC=C(c4c(C)cc(C(=O)N5CCC(CN6CCN(Cc7ccc8c(c7)C(C)(C)C(=O)N8[C@H]7CCC(=O)NC7=O)C[C@@H]6C)CC5)cc4F)CC2)n3C)c(=O)c1 (single isomer, unassigned) [Example 3u176]
7.8 nM	3.1 nM	CNc1cc(=O)n(-c2ccnc3c2cc([C@H](C)N2CC=C(c4c(C)cc(C(=O)N5CCC(CN6CCN(Cc7ccc8c(c7)C(C)(C)C(=O)N8[C@H]7CCC(=O)NC7=O)C[C@@H]6C)CC5)cc4F)CC2)n3C)cc1F (single isomer, unassigned) [Example 3u173]
5.9 nM	3 nM	CNc1ccn(-c2ccnc3c2cc(CN2CCC(c4c(F)cc(C(=O)N5CCC(CN6CCN(Cc7ccc8c(c7)C(C)(C)C(=O)N8[C@H]7CCC(=O)NC7=O)C[C@@H]6C)CC5)cc4F)CC2)n3C)c(=O)c1 (single isomer, unassigned) [Example 3u205]
5.2 nM	3.4 nM	CNc1ccn(-c2ccnc3c2cc([C@H](C)N2CC=C(c4c(F)cc(C(=O)N5CCC(CN6CCN(Cc7ccc8c(c7)C(C)(C)C(=O)N8[C@@H]7CCC(=O)NC7=O)C[C@@H]6C)CC5)cc4F)CC2)n3C)c(=O)c1 (single isomer, unassigned) [Example 3u203]
3.1 nM	1.8 nM	CNc1ccn(-c2ccnc3c2cc([C@H](C)N2CC=C(c4c(C)cc(C(=O)N5CCC(CN6CCN(Cc7ccc8c(c7)C(C)(C)C(=O)N8[C@@H]7CCC(=O)NC7=O)C[C@@H]6C)CC5)cc4F)CC2)n3C)c(=O)c1 (single isomer, unassigned) [Example 3u177]
2.7 nM	1.1 nM	CNc1ccn(-c2ccnc3c2cc([C@H](C)N2CCC(c4c(C)cc(C(=O)N5CCC(CN6CCN(Cc7ccc8c(c7)n(C7CC7)c(=O)n8[C@@H]7CCC(=O)NC7=O)C[C@@H]6C)CC5)cc4F)CC2)n3C)c(=O)c1 (single isomer, unassigned) [Example 3u199]
2.6 nM	1.9 nM	CNc1ccn(-c2ccnc3c2cc([C@H](C)N2CC=C(c4c(F)cc(C(=O)N5CCC(CN6CCN(Cc7ccc8c(c7)C(C)(C)C(=O)N8[C@H]7CCC(=O)NC7=O)C[C@@H]6C)CC5)cc4F)CC2)n3C)c(=O)c1 (single isomer, unassigned) [Example 3u202]
2.2 nM	1.6 nM	CNc1ccn(-c2ccnc3c2cc([C@H](C)N2CC=C(c4c(C)cc(C(=O)N5CCC(CN6CCN(Cc7cc8c(cc7F)N([C@@H]7CCC(=O)NC7=O)C(=O)C87CC7)C[C@@H]6C)CC5)cc4F)CC2)n3C)c(=O)c1 (single isomer, unassigned) [Example 3u195]
1.6 nM	1.2 nM	CNc1ccn(-c2ccnc3c2cc([C@H](C)N2CCC(c4c(C)cc(C(=O)N5CCC(CN6CCN(Cc7ccc8c(c7)n(C7CC7)c(=O)n8[C@H]7CCC(=O)NC7=O)C[C@@H]6C)CC5)cc4F)CC2)n3C)c(=O)c1 (single isomer, unassigned) [Example 3u198]
0.9 nM	0.6 nM	CNc1ccn(-c2ccnc3c2cc([C@H](C)N2CC=C(c4c(C)cc(C(=O)N5CCC(CN6CCN(Cc7ccc8c(c7)C7(CC7)C(=O)N8[C@@H]7CCC(=O)NC7=O)C[C@@H]6C)CC5)cc4F)CC2)n3C)c(=O)c1 (single isomer, unassigned) [Example 3u192]
0.8 nM	0.6 nM	CNc1ccn(-c2ccnc3c2cc([C@H](C)N2CC=C(c4c(C)cc(C(=O)N5CCC(CN6CCN(Cc7cc8c(cc7F)n([C@H]7CCC(=O)NC7=O)c(=O)n8C)C[C@@H]6C)CC5)cc4F)CC2)n3C)c(=O)c1 (single isomer, unassigned) [Example 3u208]
0.5 nM	0.5 nM	CNc1ccn(-c2ccnc3c2cc([C@H](C)N2CC=C(c4c(F)cc(C(=O)N5CCC(CN6CCN(Cc7ccc8c(c7)n(C7CC7)c(=O)n8[C@H]7CCC(=O)NC7=O)C[C@@H]6C)CC5)cc4F)CC2)n3C)c(=O)c1 (single isomer, unassigned) [Example 3u211]
